Measured values published in patent US20250351832A1, “PHYTOCHEMICALS AS BIOPESTICIDES AND BIOSTIMULANTS” (KAY BEE BIO ORGANICS PVT. LTD., priority 2024, published 2025).
Like-named read-outs stand apart in the source and are kept apart here.

Columns and labels:
Alternaria alternata [1] = assay: Alternaria leaf spot/blight on inoculated tomato plants (Ex. 28); type: in vivo; settings: tomato plants, Alternaria alternata; after 7 days; dose 1 ml/gm/lit
Helicoverpa armigera [2] = settings: Helicoverpa armigera 3rd instar on chickpea plants, dose 1 ml/gm/lit. spray; for % Mortality at 72 Hrs.: 72 hrs after application; for % Corrected Mortality at 72 Hrs.: corrected for water control
Thrips [3] = assay: whole plant or invertebrate; settings: in Gossypium hirsutum, 48 h
Thrips [4] = settings: Thrips on cotton leaves; dose 1 ml/gm/lit.; 10 insects/treatment; 48 hrs after application
Aphid [5] = assay: whole plant or invertebrate; settings: 48 h
Mite [6] = settings: mite on okra plants, green house, dose 1 ml/gm/lit. spray; for % Mortality at 48 Hrs. / Total No. of dead insect at 48 Hrs.: 48 hrs after application; for % Corrected Mortality at 48 Hrs.: corrected for water control
Mealy Bug [7] = settings: mealy bug on cotton plants, green house, dose 1 ml/gm/lit. spray; for % Mortality at 48 Hrs. / Total No. of dead insect at 48 Hrs.: 48 hrs after application; for % Corrected Mortality at 48 Hrs.: corrected for water control
Helicoverpa armigera [8] = settings: Helicoverpa armigera on okra fruits, dose 1 ml/gm/lit., 72 Hrs.; for Total No. of dead insect at 72 Hrs.: 10 insects/treatment, 4 replications; for % Corrected Mortality at 72 Hrs.: corrected for water control
Alternaria alternata [9] = assay: In vitro poisoned food technique against fungus (Ex. 20); type: cell-based; settings: poisoned food technique, PDA medium, dose 1 ml/gm/lit., after seven days; for inhibition of growth at 1 mL or g/L: vs untreated control, read-out: % Inhibition of growth
Spodoptera litura [10] = settings: Spodoptera litura on castor leaves; dose 1 ml/gm/lit.; 10 insects/treatment; 72 hrs after application
tomato seedlings = assay: Response of tomato plants, greenhouse growth (Ex. 30); type: in vivo; settings: tomato seedlings, dose 1 ml/gm/lit; for Plant Height 5th Day / Stem Girth 5th Day / CCI 5th Day: 5th day after application; for Plant Height 10th Day / Stem Girth 10th Day / CCI 10th Day: 10th day after application; for Plant Height % Increase over pre on 10th Day / Stem Girth % Increase over pre on 10th Day / CCI % Increase over pre on 10th Day / Root Length (cm) 10th Day / Root Length % Increase over control: 10th day; for Root Length % Increase over control: vs water control
Spodoptera litura [11] = assay: whole plant or invertebrate; settings: 72 h
chili seedlings = assay: Response of chili plants, greenhouse growth (Ex. 31); type: in vivo; settings: chili seedlings, dose 1 ml/gm/lit; for CCI 5th Day / Plant Height (cm) 5th Day: 5th day after application; for CCI 10th Day / Plant Height (cm) 10th Day: 10th day after application; for CCI % Increase over pre on 10th Day / Plant Height % Increase over pre on 10th Day / Root Lenght (cm) 10th Day / Stem Girth % Increase over pre on 10th Day / Root Lenght % Increase over control: 10th day; for Root Lenght % Increase over control: vs water control
Mealy Bug [12] = settings: Mealy Bug on cotton leaves, dose 1 ml/gm/lit., 48 Hrs.; for Total No. of dead insect at 48 Hrs.: 10 insects/treatment, 4 replications; for % Corrected Mortality at 48 Hrs.: corrected for water control
Aphid [13] = settings: Dose 1 ml/gm/lit.; for Total No. of dead insect at 48 Hrs.: 10 insects/treatment, 4 replications, cotton leaves
[14] = cited from earlier work; for Phytotonic Effect: Table 13, effect on plants, descriptive
Aphid [15] = settings: Aphids on cotton plants, green house; dose 1 ml/gm/lit.; 10 insects/plant, 10 plants/treatment; 48 hrs
Thrips [16] = settings: thrips on cotton plants, greenhouse, dose 1 ml/gm/lit. spray; for % Mortality at 48 Hrs. / Total No. of dead insect at 48 Hrs.: 48 hrs after application; for % Corrected Mortality at 48 Hrs.: corrected for water control
Spodoptera litura [17] = settings: Spodoptera litura 3rd instar on cabbage plants, dose 1 ml/gm/lit. spray; for % Mortality at 72 Hrs.: 72 hrs after application; for % Corrected Mortality at 72 Hrs.: corrected for water control
Mite [18] = settings: Dose 1 ml/gm/lit.; for Total No. of dead insect at 48 Hrs.: 10 insects/treatment, 4 replications, okra leaves
[19] = read-out: % Corrected Mortality at 48 Hrs.
[20] = read-out: % Mortality at 48 Hrs.
[21] = read-out: % Corrected Mortality at 72 Hrs.
[22] = read-out: % Mortality at 72 Hrs.
[23] = Table 13, descriptive, no test described

## CC12CCC(CC1=O)C2(C)C (stereo not drawn) [Camphor]
Alternaria alternata [1]
  % Disease reduction over Control: 46.28%
Helicoverpa armigera [2]
  % Mortality at 72 Hrs.: 55.00%
  % Corrected Mortality at 72 Hrs.: 55.00%
Thrips [3]; [19]
  mortality at 1 mL or g/L: 37.1%
Thrips [3]; [20]
  mortality at 1 mL or g/L: 45%
Thrips [4]
  Total No. of dead insect at 48 Hrs.: 4.50
Aphid [5]; [19]
  mortality at 1 mL or g/L: 52.9%
Aphid [5]; [20]
  mortality at 1 mL or g/L: 60%
Mite [6]
  % Mortality at 48 Hrs.: 65.00%
  Total No. of dead insect at 48 Hrs.: 65.00
  % Corrected Mortality at 48 Hrs.: 63.16%
Mealy Bug [7]
  % Mortality at 48 Hrs.: 67.50%
  Total No. of dead insect at 48 Hrs.: 67.50
  % Corrected Mortality at 48 Hrs.: 63.89%
Helicoverpa armigera [8]
  Total No. of dead insect at 72 Hrs.: 6.00
  % Mortality at 72 Hrs.: 60.00%
  % Corrected Mortality at 72 Hrs.: 60.00%
Alternaria alternata [9]
  Mean colony Diameter (mm): 60.00 mm
  inhibition of growth at 1 mL or g/L: 31.8%
Spodoptera litura [10]
  Total No. of dead insect at 72 Hrs.: 4.25
Tomato seedlings
  Plant Height 5th Day: 6.34 cm
  Stem Girth 5th Day: 1.90 mm
  Plant Height 10th Day: 6.96 cm
  Stem Girth 10th Day: 2.06 mm
  Plant Height % Increase over pre on 10th Day: 27.94%
  Stem Girth % Increase over pre on 10th Day: 53.50%
  CCI 5th Day: 13.64
  CCI % Increase over pre on 10th Day: 26.67%
  Root Length (cm) 10th Day: 3.58 cm
  CCI 10th Day: 14.82
  Root Length % Increase over control: 7.76%
Spodoptera litura [11]; [21]
  mortality at 1 mL or g/L: 39.5%
Spodoptera litura [11]; [22]
  mortality at 1 mL or g/L: 42.5%
Chili seedlings
  CCI 5th Day: 11.80
  Plant Height (cm) 5th Day: 5.70 cm
  CCI % Increase over pre on 10th Day: 25.81%
  Plant Height % Increase over pre on 10th Day: 56.20%
  Root Lenght (cm) 10th Day: 3.47 cm
  Stem Girth % Increase over pre on 10th Day: 44.32%
  CCI 10th Day: 13.21
  Plant Height (cm) 10th Day: 6.30 cm
  Root Lenght % Increase over control: 26.68%
Mealy Bug [12]
  Total No. of dead insect at 48 Hrs.: 5.25
  % Mortality at 48 Hrs.: 52.50%
  % Corrected Mortality at 48 Hrs.: 50.00%
Aphid [13]
  Total No. of dead insect at 48 Hrs.: 5.75
Aphid [13]; 48 hrs
  % Corrected Mortality at 48 Hrs.: 51.43%
  % Mortality at 48 Hrs.: 57.50%
[14]; [23]
  Acaricidal Activity - Mode of action: Deteriorating respiratory
  Antifungal Activity - Mode of action: Repel fungal infections
  Antioxidant Activity - Mode of action: Free radical scavenging
  Bactericidal Activity - Mode of action: Inhibit microbial growth,
  Insecticidal Activities - Mode of action: Strong contact toxicity
  Nematicidal Activity - Mode of action: Strong activity against
  Virucidal Activity - Mode of action: Control the spread of viral
[14]
  Phytotonic Effect: Strong
Aphid [15]
  Total No. of dead insect at 48 Hrs.: 60.00
Thrips [16]
  % Mortality at 48 Hrs.: 42.50%
  Total No. of dead insect at 48 Hrs.: 42.50
  % Corrected Mortality at 48 Hrs.: 36.11%
Spodoptera litura [17]
  % Mortality at 72 Hrs.: 45.00%
  % Corrected Mortality at 72 Hrs.: 42.11%
Mite [18]
  Total No. of dead insect at 48 Hrs.: 6.75
Mite [18]; 48 hrs
  % Corrected Mortality at 48 Hrs.: 64.86%

## O=C(/C=C/C=C/c1ccc2c(c1)OCO2)N1CCCCC1 [Piperine]
Alternaria alternata [1]
  % Disease reduction over Control: 53.72%
Helicoverpa armigera [2]
  % Mortality at 72 Hrs.: 67.50%
  % Corrected Mortality at 72 Hrs.: 67.50%
Thrips [3]; [19]
  mortality at 1 mL or g/L: 31.4%
Thrips [3]; [20]
  mortality at 1 mL or g/L: 40%
Thrips [4]
  Total No. of dead insect at 48 Hrs.: 4.00
Aphid [5]; [19]
  mortality at 1 mL or g/L: 64.7%
Aphid [5]; [20]
  mortality at 1 mL or g/L: 70%
Mite [6]
  % Mortality at 48 Hrs.: 60.00%
  Total No. of dead insect at 48 Hrs.: 60.00
  % Corrected Mortality at 48 Hrs.: 57.89%
Mealy Bug [7]
  % Mortality at 48 Hrs.: 57.50%
  Total No. of dead insect at 48 Hrs.: 57.50
  % Corrected Mortality at 48 Hrs.: 52.78%
Helicoverpa armigera [8]
  Total No. of dead insect at 72 Hrs.: 7.00
  % Mortality at 72 Hrs.: 70.00%
  % Corrected Mortality at 72 Hrs.: 70.00%
Alternaria alternata [9]
  Mean colony Diameter (mm): 52.00 mm
  inhibition of growth at 1 mL or g/L: 40.9%
Spodoptera litura [10]
  Total No. of dead insect at 72 Hrs.: 7.25
Tomato seedlings
  Plant Height 5th Day: 6.41 cm
  Stem Girth 5th Day: 1.80 mm
  Plant Height 10th Day: 7.02 cm
  Stem Girth 10th Day: 2.24 mm
  Plant Height % Increase over pre on 10th Day: 30.48%
  Stem Girth % Increase over pre on 10th Day: 57.52%
  CCI 5th Day: 13.89
  CCI % Increase over pre on 10th Day: 20.71%
  Root Length (cm) 10th Day: 3.93 cm
  CCI 10th Day: 14.63
  Root Length % Increase over control: 18.18%
Spodoptera litura [11]; [21]
  mortality at 1 mL or g/L: 71%
Spodoptera litura [11]; [22]
  mortality at 1 mL or g/L: 72.5%
Chili seedlings
  CCI 5th Day: 13.30
  Plant Height (cm) 5th Day: 6.30 cm
  CCI % Increase over pre on 10th Day: 38.67%
  Plant Height % Increase over pre on 10th Day: 54.78%
  Root Lenght (cm) 10th Day: 3.25 cm
  Stem Girth % Increase over pre on 10th Day: 39.49%
  CCI 10th Day: 14.2
  Plant Height (cm) 10th Day: 7.12 cm
  Root Lenght % Increase over control: 18.81%
Mealy Bug [12]
  Total No. of dead insect at 48 Hrs.: 5.25
  % Mortality at 48 Hrs.: 52.50%
  % Corrected Mortality at 48 Hrs.: 50.00%
Aphid [13]
  Total No. of dead insect at 48 Hrs.: 7.00
Aphid [13]; 48 hrs
  % Corrected Mortality at 48 Hrs.: 65.71%
[14]; [23]
  Acaricidal Activity - Mode of action: Cause dehydration of mites
  Antifungal Activity - Mode of action: Inhibition of the fungal
[14]
  Phytotonic Effect: Boost plant
Aphid [15]
  Total No. of dead insect at 48 Hrs.: 70.00
Thrips [16]
  % Mortality at 48 Hrs.: 32.50%
  Total No. of dead insect at 48 Hrs.: 32.50
  % Corrected Mortality at 48 Hrs.: 25.00%
Spodoptera litura [17]
  % Mortality at 72 Hrs.: 70.00%
  % Corrected Mortality at 72 Hrs.: 68.42%
Mite [18]
  Total No. of dead insect at 48 Hrs.: 6.25
Mite [18]; 48 hrs
  % Corrected Mortality at 48 Hrs.: 59.46%
  % Mortality at 48 Hrs.: 62.50%
